Data reported in patent publication US4957926A, “Method of treating herpesviruses” (priority 1988, dated 1990).
Entries after “also recorded” stand apart in the source; their conditions may differ. Where two headings read alike, the source gives them in different places.

Key:
[1] = Fleet et al., compound No. 57 vs. No. 16; cited from earlier work
[2] = system: Cytomegalovirus (Viral Strain Towne); assay: Cytomegalovirus Plaque Reduction Assay; assay type: cell-based
Text: (§1) For testing the N-Bu-DNJ against HSV, the HSV Type II strain HG52 described by Timbury, J. Gen. Virol. 13, 373-376 (1971), and Davis et al., Analyst 110, 605-609 (1985), is useful. For testing against CMV, the prototype CMV ADl69 strain described, for example, by Tyms et al., J. Gen. Virol. 68, 1563-1573 (1987), and in U.S. Pat. No. 4,743,560, is useful. Another useful CMV strain is the Towne strain described by Glazer et al., Ann. Inter. Med. 91, 676-683 (1979).
(§2) Human embryo fibroblast cells (HEF) were grown in Eagles minimal essential medium supplemented with 7% fetal calf serum (FCS), 9 mM sodium bicarbonate and 7 mM HEPES buffer. In maintenance medium the supplements were adjusted to 2% FCS, 13 mM sodium bicarbonate and 14 mM HEPES. CMV, strain Towne, and HSV type II, strain […], were used in the following tests. CMV virus stocks were prepared and stored by technique as previously described by Tyms & Williamson, Nature 297, 690-691 […]. Herpes virus stocks were prepared and stored by technique as previously described by Davis et al., Analyst 110, 605-609 (1985). The HEF were human embryonic lung fibroblasts, strain MRC-5, as described by Tyms and Williamson, Nature 297, 690-691 (1982).
(§3) For plaque reduction assays, 24-well culture trays were seeded with HEF cells. Confluent monolayers were infected with virus to give initially about 100 plaque-forming-units (p.f.u.) per well. After a one hour absorption period the inocula were replaced by l.5ml of a maintenance medium incorporating 0.5% low gelling temperature agarose, supplemented with various concentrations of test compound. For tests with CMV, infected monolayers were fixed with 5% formalin in phosphate buffered saline (PBS) at 6-8 days post-infection and stained with 0.3% methylene blue after removal of the overlay; whereas, tests with HSV were conducted in the same manner but with the monolayer fixing at 2 days post infection. The mean plaque number was calculated from a multiple series of counts (e.g., duplicate, triplicate or quadruplicate), converted to a percentage of untreated controls and values plotted against the log10 drug concentration. The 50% effective dose (ED50) was determined from best line fits for the curves.
In a similar manner, the Effective Dosage Values (ED50) were determined from the curves of FIG. 1. A least squares fit of the data of FIG. 1 to an equation of the form: y=mx+b gave the following values: […]
From these values, a 50% effective dose (ED50) was calculated to give the following values: […]

[3] = system: Herpes Simplex Type II (Viral Strain HG52); assay: Herpes Simplex Type II Plaque Reduction Assay; assay type: cell-based; conditions: for Plaque Count: replicate counts
Text: as §1, §2, §3
The mean plaque numbers determined on HEF cells exposed to varying amount of N-Bu-DNJ, N-Me-DNJ, N-He-DNJ, 2-deoxy-D-glucose and castanospermine were converted to percentage values (plaque count in presence of drug divided by mean value of untreated controls×100), and plotted as a function of drug concentration [drug (mM)].
The 50% effective dose (ED50)--that amount of drug needed to reduce plaque count by 50%--was calculated to give the following values: […]

[4] = system: HSV type I; assay: preliminary tests with a HSV type I strain which did not form multinucleated giant cells; assay type: cell-based; conditions: strain not forming giant cells
Text: The formation of multinucleated giant cells (syncytia), which result from the fusion of T4 cells with each other, is one of the most striking properties of HIV [Walker et al., Proc. Natl. Acad. Sci. USA 84, 8120-8124 (1987); Gruters et al., Nature 330, 74-77 (1987)]. Some, but not all, HSV strains also produce these multinucleated giant cells in vitro cell culture.

[5] = system: HEF cells (strain MRC-5); assay: HEF cell growth / monolayer appearance in HSV type II plaque reduction assay; assay type: cell-based, human; conditions: all concentrations (0.56-4.5 mM)
Procedure: as §3

[6] = system: Cytomegalovirus (Viral Strain Towne); assay: Yield Reduction Assay against infections with CMV (Towne strain); assay type: cell-based; conditions: for Plaque Count (infectivity titre): 10^1 dil.; for activity at 500 µM / activity at 2000 µM: read-out: % Virus Control
Procedure: Antiviral activities of N-Bu-DNJ and comparative test compounds against infections with CMV (Towne strain) were also measured by the yield reduction assay as follows:
HEF cells (MRC-5) were infected at high multiplicity of infection (about one p.f.u. per cell) and incubated with various concentrations of the test compounds for 5 and 6 days post infection. The level of infectious virus shed into the extracellular fluid was determined at 5 and 6 days by plaque assays as described above, using serial dilution of extracellular fluid to bring readings on scale.
In Table VI, to calculate plaque-forming units (PFU) of the maintenance medium overlayering HEF cells, the plaque count at the most sensitive dilution (from Table V) was multiplied by dilution value and then by 5 (0.2 ml sample volumes used in test) to give PFU (per ml maintenance medium). (e.g. calculation of drug control: 31×10^3 ×5=1.6×10^5 PFU).

CCCCN1C[C@H](O)[C@@H](O)[C@H](O)[C@H]1CO [N-Bu-DNJ, Nbutyl deoxynojirimycin]
cytotoxicity relative to castanospermine (in words) [1]: substantially less cytotoxic
EC50 ([2]; Human betaherpesvirus 5, HEF, CMV, calculated from least squares fit of FIG. 1, read-out: 50% effective dose (ED50)): 570 µM
activity at 220 µM ([2]; Human betaherpesvirus 5, HEF, Table IV, 0.22 mM, read-out: % Virus control): 87%
activity at 450 µM ([2]; Human betaherpesvirus 5, HEF, Table IV, 0.45 mM, read-out: % Virus control): 52%
activity at 900 µM ([2]; Human betaherpesvirus 5, HEF, Table IV, 0.90 mM, read-out: % Virus control): 32%
activity at 1800 µM ([2]; Human betaherpesvirus 5, HEF, Table IV, 1.8 mM, read-out: % Virus control): 17%
Plaque Count Avg ([2]; Table IV, 0.22 mM): 153
Plaque Count ([2]; Table IV, 0.22 mM, replicate counts): 159,156,144,153
Plaque Count Avg ([2]; Table IV, 0.45 mM): 92
Plaque Count Avg ([2]; Table IV, 0.90 mM): 56
Plaque Count Avg ([2]; Table IV, 1.8 mM): 30
reduction of CMV infection of HEF cells (in words) ([2]; compared with castanospermine): reduces CMV infection of HEF cells at about the same dosage as does castanospermine
antiviral activity against HSV type II (in words) [3]: substantially reduce herpesvirus type II infection of HEF cells; also recorded: strong antiviral activity
EC50 ([3]; HEF, HSV type II, amount of drug needed to reduce plaque count by 50%, read-out: 50% effective dose (ED50)): 1.2 mM
activity at 220 µM ([3]; HEF, Table I, 0.22 mM, read-out: % Virus Control): 85%
activity at 450 µM ([3]; HEF, Table I, 0.45 mM, read-out: % Virus Control): 60%
activity at 900 µM ([3]; HEF, Table I, 0.9 mM, read-out: % Virus Control): 37%
activity at 1800 µM ([3]; HEF, Table I, 1.8 mM, read-out: % Virus Control): 40%
activity at 3600 µM ([3]; HEF, Table I, 3.6 mM, read-out: % Virus Control): 7.7%
activity at 560 µM ([3]; HEF, Table III, 0.56 mM, read-out: % Virus Control): 56.9%
activity at 1120 µM ([3]; HEF, Table III, 1.12 mM, read-out: % Virus Control): 51%
activity at 2250 µM ([3]; HEF, Table III, 2.25 mM, read-out: % Virus Control): 27.5%
activity at 4500 µM ([3]; HEF, Table III, 4.5 mM, read-out: % Virus Control): 17.6%
Plaque Count Avg ([3]; Table I, 0.22 mM): 66
Plaque Count ([3]; Table I, 0.22 mM): 80,52
Plaque Count Avg ([3]; Table I, 0.45 mM): 47
Plaque Count ([3]; Table I, 0.45 mM): 42,53
Plaque Count Avg ([3]; Table I, 0.9 mM): 29
Plaque Count ([3]; Table I, 0.9 mM): 36,22
Plaque Count Avg ([3]; Table I, 1.8 mM): 31
Plaque Count ([3]; Table I, 1.8 mM): 41,20
Plaque Count Avg ([3]; Table I, 3.6 mM): 6
Plaque Count ([3]; Table I, 3.6 mM): 5,7
Plaque Count Avg ([3]; Table III, 0.56 mM): 29
Plaque Count Avg ([3]; Table III, 1.12 mM): 26
Plaque Count Avg ([3]; Table III, 2.25 mM): 14
Plaque Count Avg ([3]; Table III, 4.5 mM): 9
antiviral effect on HSV type I strain (in words) [4]: only minor effect
HEF cell growth (in words) [5]: grew normally
PFU ([6]; 0.5 mM, 5 days HEF growth): 8.5 × 10^5 PFU (per ml maintenance medium
Plaque Count (infectivity titre) ([6]; 0.5 mM, 5 days growth): ~ 200
PFU ([6]; 0.5 mM, 6 days HEF growth): 1.3 × 10^4 PFU (per ml maintenance medium
Plaque Count (infectivity titre) ([6]; 0.5 mM, 6 days growth): ~ 200
PFU ([6]; 2.0 mM, 5 days HEF growth): 1.4 × 10^3 PFU (per ml maintenance medium
PFU ([6]; 2.0 mM, 6 days HEF growth): 5.5 × 10^2 PFU (per ml maintenance medium
activity at 500 µM ([6]; Human betaherpesvirus 5, MRC5, 120 h, 0.5 mM, 5 days HEF growth): 5.3%
activity at 2000 µM ([6]; Human betaherpesvirus 5, MRC5, 120 h, 2.0 mM, 5 days HEF growth): 0.88%
activity at 500 µM ([6]; Human betaherpesvirus 5, MRC5, 144 h, 0.5 mM, 6 days HEF growth): 3.5%
activity at 2000 µM ([6]; Human betaherpesvirus 5, MRC5, 144 h, 2.0 mM, 6 days HEF growth): 0.15%
